# Patent US11426472B2, “Fibroblast activation protein (FAP) targeted imaging and therapy in fibrosis” (Purdue Research Foundation, priority 2018, dated 2022)
# What was measured:
# mouse FAP = molecular target: T1, mouse FAP (Mus musculus, UniProt P97321); experiment: Binding of FAPL_FITC to TGFβ-induced NIH-3T3 cells; assay type: cell-based
# T1 construct: NIH-3T3 cells were induced with TGFβ to express FAP; endogenous in cells; host or cells: NIH-3T3 mouse fibroblasts induced with TGFβ
# T1 sequence (P97321 1-761): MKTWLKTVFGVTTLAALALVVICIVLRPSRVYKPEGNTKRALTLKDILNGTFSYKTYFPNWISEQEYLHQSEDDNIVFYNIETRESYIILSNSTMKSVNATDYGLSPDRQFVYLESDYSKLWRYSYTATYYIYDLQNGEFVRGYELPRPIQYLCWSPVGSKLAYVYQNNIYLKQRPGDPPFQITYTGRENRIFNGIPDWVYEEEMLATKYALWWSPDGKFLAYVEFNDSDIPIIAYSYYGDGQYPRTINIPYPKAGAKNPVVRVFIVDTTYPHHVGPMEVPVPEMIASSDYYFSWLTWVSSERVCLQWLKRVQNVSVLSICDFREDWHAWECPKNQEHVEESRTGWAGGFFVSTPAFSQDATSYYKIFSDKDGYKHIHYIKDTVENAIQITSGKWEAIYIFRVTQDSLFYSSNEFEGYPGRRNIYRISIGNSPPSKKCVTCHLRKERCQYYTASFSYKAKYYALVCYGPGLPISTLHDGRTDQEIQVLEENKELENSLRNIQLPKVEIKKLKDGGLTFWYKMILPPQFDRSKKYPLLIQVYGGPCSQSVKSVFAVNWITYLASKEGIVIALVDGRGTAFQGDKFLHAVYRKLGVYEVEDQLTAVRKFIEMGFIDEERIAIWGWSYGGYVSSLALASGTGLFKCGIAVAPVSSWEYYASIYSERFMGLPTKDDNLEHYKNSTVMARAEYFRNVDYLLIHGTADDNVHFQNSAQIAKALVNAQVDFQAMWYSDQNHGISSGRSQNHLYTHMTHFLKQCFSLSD
# Description: FAPL-FITC targets mouse FAP in mouse fibroblast cells. Fluorescence binding affinity study of FAPL_FITC in HLF-hFAP cells. (C) Binding of FAPL_FITC to TGFb induced mouse NIH-3T3 cell line.
# In this Example, we have shown that FAPL_FITC can recognize mouse FAP. Briefly, NIH-3T3 cells were induced with TGFβ to express FAP (mimicking the pathogenesis of fibrosis in mice). FAPL_FITC can recognize almost 98% of the cell population that binds to a specific monoclonal antibody against mouse FAP.
# human FAP = molecular target: T2, human FAP (Homo sapiens, UniProt Q12884); experiment: Live cell imaging of FAP-FITC binding and internalization in HLF1-hFAP cells; assay type: cell-based; settings: 10 nM
# T2 construct: expressed in transfected cells; host or cells: HLF1 human lung fibroblast cell line transfected with FAP (HLF1-hFAP)
# T2 sequence (Q12884 1-760): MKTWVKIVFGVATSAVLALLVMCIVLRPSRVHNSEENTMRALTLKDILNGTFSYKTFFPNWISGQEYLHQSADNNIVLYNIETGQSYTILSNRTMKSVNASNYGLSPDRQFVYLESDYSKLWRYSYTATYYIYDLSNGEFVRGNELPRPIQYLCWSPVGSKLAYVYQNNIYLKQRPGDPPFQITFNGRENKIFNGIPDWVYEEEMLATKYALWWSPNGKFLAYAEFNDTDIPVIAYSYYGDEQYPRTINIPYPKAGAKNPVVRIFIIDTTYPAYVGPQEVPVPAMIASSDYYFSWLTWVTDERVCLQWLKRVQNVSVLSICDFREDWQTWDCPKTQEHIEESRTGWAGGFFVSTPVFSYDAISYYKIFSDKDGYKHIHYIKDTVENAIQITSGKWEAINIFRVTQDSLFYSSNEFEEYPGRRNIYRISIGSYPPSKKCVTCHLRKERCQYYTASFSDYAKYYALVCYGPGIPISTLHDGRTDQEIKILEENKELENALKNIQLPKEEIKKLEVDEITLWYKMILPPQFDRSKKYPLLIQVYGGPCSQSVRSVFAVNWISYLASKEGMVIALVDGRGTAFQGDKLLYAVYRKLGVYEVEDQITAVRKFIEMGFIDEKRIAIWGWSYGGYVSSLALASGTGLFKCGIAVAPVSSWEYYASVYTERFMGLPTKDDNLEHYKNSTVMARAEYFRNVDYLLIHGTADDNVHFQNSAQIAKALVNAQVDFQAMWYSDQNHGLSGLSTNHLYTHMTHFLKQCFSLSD
# Method: FAPL-FITC targets human FAP in HLF1 cells. A) Live cell imaging of FAPL-FITC internalization. confocal microscopy images of HLF1-hFAP cells incubated with FAPL-FITC (10 nM), FAP staining is shown in green. Spatial localization of FAPL-FITC in HLF1-hFAP cell line at 0 min (a), and at 30 min (d). Colocalization of FAP and endosomes: HLF1-hFAP cells incubated with FAPL-FITC followed by staining for endosomes (Rab7a-RFP; red) and nucleus (DRAQ5; blue). The merge of the 3 images is shown on the right (c, and f). Yellow indicated colocalization of FAP with endosomal markers.
# HLF1-hFAP cells were seeded in the glass-bottom dish and incubated with adequate amount of endosomes tracker (Rab7a-RFP, ThermoFisher) for overnight. Then cells were incubated with FAP-FITC (10 nM) for 1 hour at 4° C. Followed by staining with […] DRAQ5 nucleus dye (ThermoFisher) and 3 times of PBS washes, spatial localization of FAP-FITC was monitor at given time under ambient temperature by confocal microscope (FV 1000, Olympus). Confocal images were further processed by FV10-ASW, Olympus software.
# IPF fibroblasts = experiment: TGFβ-induced Collagen I in IPF patient fibroblasts (molecular crowding assay, high content imaging); assay type: cell-based, human; settings: for TGFβ-induced collagen production/secretion: IPF patient fibroblasts, TGFβ 1 ng/mL, 48 h
# Method: PI3KI1 and PI3KI1-FAPL suppressed TGFβ-induced collagen production in IPF fibroblasts. (B) Confluent IPF fibroblasts were stimulated for 48 h with TGFβ (1 ng/mL) with increasing concentrations of OMIPALISIB or PI3KI1 or PI3KI1-FAPL and Collagen I expression was assayed by molecular crowding assay with high content image analysis. Data are expressed as relative fluorescent intensity over TGFβ treated IPF fibroblasts (C) and cell counts obtained from DAPI counterstaining (D).
# HLF-1 fibroblasts [1] = experiment: Secreted collagen in HLF1 cells (Sirius Red staining); assay type: cell-based, human
# Method: (§1) PI3KI1 inhibits Akt phosphorylation, proliferation, collagen secretion and collagen gel contraction in HLF-1 fibroblasts. (A) PI3KI1 structure. (B) Confluent HLF-1 fibroblasts were stimulated with TGFβ (1 ng/mL) with indicated PI3KI1 or OMIPALISIB and lysates collected for Western blotting. […] Collagen 1 and αSMA expression was suppressed by 100 nM PI3KI1, but pSMAD2 was not affected by PI3K inhibitors. (C) MTT assay and Caspase 3 and 7 activity (Supplementary data) show PI3KI1 inhibited HLF-1 proliferation at >100 nM. (D) HLF-1 fibroblasts were stimulated with TGFβ (1 ng/mL) for 3 days and level of secreted collagen in culture medium was determined by Sirius Red staining. […] Data are analysis by t-test; *p<0.05, **p<0.01.
# Confluent HLF1 cells were seeded in DMEM medium containing 10% FBS and then 0.4% serum starvation overnight before stimulation of collagen secretion. TGFb1 (0.1 ng/ml) were added into cells with or without PI3K inhibitors. At 2 days post co-incubation, culture medium was collected for determination of total secreted collagen level. Total collagen level was determined by Sirius Red Total Collagen Detection Kit (Chondrex, Inc). Basically, concentrated sample incubated with […] of Sirius Red Solution with for 20 minutes at room temperature. […] Add […] of Extraction Buffer to the Sirius Red stained pellet and read the OD at 510-550 nm.
# [2] = tested on: bleomycin-induced lung fibrosis; experiment: Therapy in bleomycin-induced lung fibrosis model (survival, hydroxyproline); assay type: in vivo, mouse; settings: for survival: bleomycin-induced mice versus untreated/PBS control; for hydroxyproline/collagen in lung: bleomycin-induced mice, day 21, versus untreated/PBS control
# Description: Therapy with FAP-a targeted Pi3K inhibitor in bleomycin treated mice. (A) Schematic representation of the experimental protocol for induction, treatment and examination of pulmonary fibrosis in a mouse model. (B) Survival probability of the FAPL_PI3KI1 treated mice over the saline control. (C) Hydroxyproline content (ug/lung) of control (saline), bleomycin treated with and without FAPL_PI3KI1 treatment at day 21. (D) Body weight change
# 8 to 10-week old C57BL/6-NCrl (Strain Code: 027) male mice (Charles River) were anesthetized (mixture of xylazine/ketamine), followed by a single intratracheal injection of freshly prepared 0.75 mg/Kg of bleomycin sulfate (Cayman Chemicals, Cat N13877) in 50 μL of sterile phosphate-buffered saline (PBS). Control mice were injected with 50 μL of sterile PBS. Body weights were monitored throughout the study. To access the FAP expression and fibrosis in the longitudinal study the lungs were harvested at Days 7, 14 and 21 post-bleomycin instillation. For the therapy with FAP-PI3K inhibitor, same procedure was carried out to administer bleomycin and the lungs were harvested at Day 21 to access the therapeutic efficacy (Day 0 was accounted as the day of bleomycin administration).
# Total lung collagen was determined by analysis of hydroxyproline as previously described.^30 The right lung was consistently dedicated for this assay to allow comparison. Briefly, harvested right lung was homogenized in PBS (PH 7.4), digested with 12N HCl at 120° C. for 3 hr. Citrate/acetate buffer (PH 6.0) and Chloramine-T solution were added at room temperature for 20 minutes and the samples were incubated with Ehrlich's solution for 15 min at 65° C. Samples were cooled to room temperature and read at 550 nm. Hydroxyproline standards (Sigma, MO) at concentrations between 0 to 100 μg/ml were used to construct a standard curve.
# PI-3 Kinase signaling = settings: IPF-derived lung fibroblasts; cited from earlier work
# HLF-1 fibroblasts [3] = experiment: Collagen gel contraction assay; assay type: cell-based, human; settings: 100 nM for 12 hours
# Method: as §1
# HLF-1 fibroblasts [4] = experiment: MTT assay and Caspase 3 and 7 activity in HLF-1; assay type: cell-based, human
# Method: as §1
# FIG. 18. Caspase 3 and 7 activity show PI3KI1 inhibited HLF-1 proliferation at >100 nM.
# AKT phosphorylation = experiment: Western blot of TGFβ-stimulated HLF-1 fibroblasts: Akt phosphorylation; assay type: cell-based, human
# Method: as §1
# (§2) Serum starved confluent HLF1 cells were co-incubated in medium containing 1 ng/ml TGFb1 with or without designate concentrations of PI3K inhibitors for 24 hours. Cells were harvested and lysed for Western blot analysis. Following sodium dodecyl sulphate polyacrylamide gel electrophoresis and blocking, membranes were incubated with antibodies to detect pSMAD2^Ser465/467 (#3101, Cell Signalling Technology), or pAkt^Ser473 (#4060, Cell signalling Technology), and signals visualized with ECL Western Blotting Detection Reagents (GE Healthcare). […]
# [5] = tested on: Collagen 1 and αSMA expression; experiment: Western blot of TGFβ-stimulated HLF-1 fibroblasts: Collagen 1 and αSMA expression; assay type: cell-based, human; settings: 100 nM, HLF-1, TGFβ 1 ng/mL
# Method: as §1, §2
structure (smiles),measurement,setting,value
C[C@H](NC(=O)c1ccnc(CNC(=O)CCC(=O)NC(CSC2CC(=O)N(c3ccc(C4c5ccc(O)cc5OC5=CC(=O)C=CC54)c(C(=O)O)c3)C2=O)C(=O)O)c1)C(=O)N1CC(F)(F)C[C@H]1C#N (some centres unmarked) [FAPL-FITC],cell population recognized among cells binding a monoclonal antibody against mouse FAP,mouse FAP,~98%
same,binding to hFAP-HLF1 cell line,human FAP; confocal microscopy and flow cytometry,binds well with good competition
same,internalization,human FAP; HLF1-hFAP cells,internalized upon receptor engagement
COc1ncc(-c2ccc3nccc(-c4ccc(COC(=O)OCCSSCC(NC(=O)CCC(=O)NCc5cc(C(=O)N[C@@H](C)C(=O)N6CC(F)(F)C[C@H]6C#N)ccn5)C(=O)O)nc4)c3c2)cc1NS(=O)(=O)c1ccc(F)cc1F (some centres unmarked) [FAPL-PI3KI1],IC50,"IPF fibroblasts; IPF patient cell lines, read-out: IC50 of collagen secretion/synthesis",< 10 nM
same,TGFβ-induced collagen production/secretion,IPF fibroblasts; listed as FAP_PI3KI1,"suppresses TGFβ induced collagen secretion at low drug concentration, better than free PI3KI1 and free GSK drug OMIPALISIB"
same,TGFβ-induced collagen production/secretion,IPF fibroblasts; listed as PI3KI1-FAPL,suppressed
same,IC50,"HLF-1 fibroblasts [1]; HLF1-hFAP cell line, read-out: IC50 of collagen secretion/synthesis",< 10 nM
same,survival,[2],increased survival
same,survival,[2]; listed as FAPL_PI3KI-SUH,increased survival rate
same,hydroxyproline/collagen in lung,[2],decreased hydroxyproline/collagen production
same,hydroxyproline/collagen in lung,[2]; listed as FAPL_PI3KI-SUH,reduction of hydroxyproline
COc1ncc(-c2ccc3nccc(-c4ccnnc4)c3c2)cc1NS(=O)(=O)c1ccc(F)cc1F [OMIPALISIB],PI-3 Kinase signaling and functional responses,PI-3 Kinase signaling,inhibited PI-3 Kinase signaling and functional responses
COc1ncc(-c2ccc3nccc(-c4ccc(CO)nc4)c3c2)cc1NS(=O)(=O)c1ccc(F)cc1F [PI3KI1],fibroblast reorganization and contraction (collagen gel contraction),HLF-1 fibroblasts [3],disrupted fibroblasts reorganization and contraction
same,TGFβ-induced collagen production/secretion,IPF fibroblasts,suppressed
same,toxicity,HLF-1 fibroblasts [4]; HLF-1,does not have toxicity
same,concentration at which HLF-1 proliferation is inhibited,HLF-1 fibroblasts [4]; MTT assay and Caspase 3 and 7 activity,> 100 nM
same,collagen secretion,"HLF-1 fibroblasts [1]; HLF-1 cell line, TGFβ stimulated",suppresses collagen secretion
same,Akt phosphorylation inhibition compared with OMIPALISIB,AKT phosphorylation; HLF-1,better than its GSK counterpart OMIPALISIB
same,IC50,"AKT phosphorylation; Homo sapiens, HLF1, HLF-1, TGF-β 1 ng/ml for 24 hr, read-out: IC50 of TGF-β induced AKT phosphorylation",1.4 nM
same,Collagen 1 and αSMA expression,[5],suppressed
